Laboratory results taken from US20230150924A1, “NOVEL COMPOUND HAVING CANCER METASTASIS INHIBITORY ACTIVITY, PREPARATION METHOD THEREFOR, AND PHARMACEUTICAL COMPOSITION FOR INHIBITING CANCER METASTASIS AND INVASION OR TREATING COLORECTAL CANCER, COMPRISING COMPOUND” (CELLGENTEK CO., LTD., priority 2019, published 2023).
Where two headings read alike, the source gives them in different places.

Tests used:
[1] = system: KAI1 promoter; assay: KAI1 promoter luciferase reporter assay in transfected Caco2 cells; format: cell-based, human; settings: Homo sapiens, Caco-2, 16 h, read-out: Relative KAI promoter activity
[2] = system: invasion of colorectal cancer cells; assay: In vivo relative invation (invasion; EV and KITENIN controls, no method described); settings: relative to EV (=1); KIT = KITENIN
[3] = 1 μM compound, 16 hours, transfected Caco2 cells, luciferase activity relative to DMSO control (=1)

Structure (SMILES): CN(C)c1ccc(C(=O)CNC(=O)c2ccc(F)cc2)cc1 [Example 91, N-(2-(4-(dimethylamino)phenyl)-2-oxoethyl)-4-fluorobenzamide]
- fold induction at 1 µM [1, 3]: 2.44
- In vivo relative invation [2]: 1.058

Structure (SMILES): CN(C)c1ccc(C(=O)CNC(=O)C2CC2)cc1 [Example 100, N-(2-(4-(dimethylamino)phenyl)-2-oxoethyl)cyclopropanecarboxamide]
- fold induction at 1 µM [1, 3]: 1.62
- In vivo relative invation [2]: 1.094

Structure (SMILES): CS(=O)(=O)NCC(=O)c1ccccc1 [Example 25, N-(2-oxo-2-phenylethyl)methanesulfonamide]
- fold induction at 1 µM [1, 3]: 1.49
- In vivo relative invation [2]: 1.215

Structure (SMILES): O=C(CNC(=O)c1cccc([N+](=O)[O-])c1)c1ccccc1 [Example 34, 3-nitro-N-(2-oxo-2-phenylethyl)benzamide]
- fold induction at 1 µM [1, 3]: 1.34
- In vivo relative invation [2]: 1.103

Structure (SMILES): CN(C)c1ccc(C(=O)CNC(=O)c2ccco2)cc1 [Example 92, N-(2-(4-(dimethylamino)phenyl)-2-oxoethyl)furan-2-carboxamide]
- fold induction at 1 µM [1, 3]: 2.29
- In vivo relative invation [2]: 1.064

Structure (SMILES): C/C=C/C(=O)NCC(=O)c1cccnc1 [Example 134, (E)-N-(2-oxo-2-(pyridin-3-yl)ethyl)but-2-enamide]
- fold induction at 1 µM [1, 3]: 1.09
- In vivo relative invation [2]: 1.297

Structure (SMILES): CCCN(CC)Cc1cccc(C(=O)NCC(=O)c2cccc(OC)c2)c1 [Example 294, 3-((ethyl(propyl)amino)methyl)-N-(2-(3-methoxyphenyl)-2-oxoethyl)benzamide]
- fold induction at 1 µM [1, 3]: 1.57
- In vivo relative invation [2]: 1.033

Structure (SMILES): O=C(CNC(=O)c1ccccc1F)c1cccnc1 [Example 132, 2-fluoro-N-(2-oxo-2-(pyridin-3-yl)ethyl)benzamide]
- fold induction at 1 µM [1, 3]: 1.18
- In vivo relative invation [2]: 1.226

Structure (SMILES): COc1cccc(C(=O)CNC(=O)c2cccc(CN3CCc4ccccc4C3)c2)c1 [Example 279, 3-((3,4-dihydroisoquinolin-2(1H)-yl)methyl)-N-(2-(3-methoxyphenyl)-2-oxoethyl)benzamide]
- fold induction at 1 µM [1, 3]: 2.28
- In vivo relative invation [2]: 1.187

Structure (SMILES): CCCCCN(CCCCC)Cc1cccc(C(=O)NCC(=O)c2ccccc2)c1 [Example 250, 3-((dipentylamino)methyl)-N-(2-oxo-2-phenylethyl)benzamide]
- fold induction at 1 µM [1, 3]: 1.25
- In vivo relative invation [2]: 0.9781

Structure (SMILES): CCCCN(CCO)Cc1cccc(C(=O)NCC(=O)c2cccc(OC)c2)c1 [Example 288, 3-((butyl (2-hydroxyethyl)amino)methyl)-N-(2-(3-methoxyphenyl)-2-oxoethyl)benzamide]
- fold induction at 1 µM [1, 3]: 1.73
- In vivo relative invation [2]: 1.222

Structure (SMILES): O=C(COc1ccccc1C(=O)NCC(=O)c1ccccc1)Nc1ccc(F)c([N+](=O)[O-])c1 [Example 211]
- fold induction at 1 µM [1, 3]: 1.44
- In vivo relative invation [2]: 0.8699

Structure (SMILES): CN1CCN(Cc2cccc(C(=O)NCC(=O)c3ccccc3)c2)CC1 [Example 253, 3-((4-methylpiperazin-1-yl)methyl)-N-(2-oxo-2-phenylethyl)benzamide]
- fold induction at 1 µM [1, 3]: 0.963
- In vivo relative invation [2]: 1.421

Structure (SMILES): COc1cccc(C(=O)CNC(=O)c2cccc(CN3CCN(CCO)CC3)c2)c1 [Example 292, 3-((4-(2-hydroxyethyl)piperazin-1-yl)methyl)-N-(2-(3-methoxyphenyl)-2-oxoethyl)benzamide]
- fold induction at 1 µM [1, 3]: 1.45
- In vivo relative invation [2]: 1.238

Structure (SMILES): CCCN(CCC)Cc1ccc(C(=O)NCC(=O)c2ccccc2)cc1 [Example 272, 4-((dipropylamino)methyl)-N-(2-oxo-2-phenylethyl)benzamide]
- fold induction at 1 µM [1, 3]: 1.59
- In vivo relative invation [2]: 1.23

Structure (SMILES): C=CCNC(=O)COc1ccccc1C(=O)NCC(=O)c1ccccc1 [Example 203, 2-(2-(allylamino)-2-oxoethoxy)-N-(2-oxo-2-phenylethyl)benzamide]
- fold induction at 1 µM [1, 3]: 1.05
- In vivo relative invation [2]: 1.178

Structure (SMILES): CN(C)c1ccc(C(=O)CNC(=O)c2ccccc2Cl)cc1 [Example 93, 2-chloro-N-(2-(4-(dimethylamino)phenyl)-2-oxoethyl)benzamide]
- fold induction at 1 µM [1, 3]: 2.48
- In vivo relative invation [2]: 1.091

Structure (SMILES): CCCCN(C)Cc1ccc(C(=O)NCC(=O)c2ccccc2)cc1 [Example 271, 4-((butyl (methyl)amino)methyl)-N-(2-oxo-2-phenylethyl)benzamide]
- fold induction at 1 µM [1, 3]: 1.31
- In vivo relative invation [2]: 1.228

Structure (SMILES): O=C(CNC(=O)c1ccc(-c2ccccc2)cc1)c1ccccc1 [Example 43, N-(2-oxo-2-phenylethyl)-[1,1′-biphenyl]-4-carboxamide]
- fold induction at 1 µM [1, 3]: 1.91
- In vivo relative invation [2]: 0.9774

Structure (SMILES): O=C(CNC(=O)c1ccc(Cl)cc1)c1cccnc1 [Example 130, 4-chloro-N-(2-oxo-2-(pyridin-3-yl)ethyl)benzamide]
- fold induction at 1 µM [1, 3]: 1.32
- In vivo relative invation [2]: 0.9875

Structure (SMILES): CN(Cc1ccc(C(=O)NCC(=O)c2ccccc2)cc1)c1ccccc1 [Example 262, 4-((methyl (phenyl)amino)methyl)-N-(2-oxo-2-phenylethyl)benzamide]
- fold induction at 1 µM [1, 3]: 1.54
- In vivo relative invation [2]: 1.09

Structure (SMILES): CN(C)c1ccc(C(=O)CNC(=O)c2ccccc2C(F)(F)F)cc1 [Example 112, N-(2-(4-(dimethylamino)phenyl)-2-oxoethyl)-2-(trifluoromethyl)benzamide]
- fold induction at 1 µM [1, 3]: 2.82
- In vivo relative invation [2]: 0.9835

Structure (SMILES): CN(Cc1ccccc1)Cc1ccc(C(=O)NCC(=O)c2ccccc2)cc1 [Example 266, 4-((benzyl(methyl)amino)methyl)-N-(2-oxo-2-phenylethyl)benzamide]
- fold induction at 1 µM [1, 3]: 2.21
- In vivo relative invation [2]: 1.401

Structure (SMILES): O=C(CNC(=O)c1ccc(CN2CCOCC2)cc1)c1ccccc1 [Example 276, 4-(morpholinomethyl)-N-(2-oxo-2-phenylethyl)benzamide]
- fold induction at 1 µM [1, 3]: 3.39
- In vivo relative invation [2]: 1.224

Structure (SMILES): O=C(CNC(=O)c1cccc(C(F)(F)F)c1)c1ccc(Cl)cc1 [Example 74, N-(2-(4-chlorophenyl)-2-oxoethyl)-3-(trifluoromethyl)benzamide]
- fold induction at 1 µM [1, 3]: 0.78
- In vivo relative invation [2]: 1.17

Structure (SMILES): CCCCC(=O)NCC(=O)c1ccc(N2CCOCC2)cc1 [Example 145, N-(2-(4-morpholinophenyl)-2-oxoethyl)pentanamide]
- fold induction at 1 µM [1, 3]: 1.1
- In vivo relative invation [2]: 1.433

Structure (SMILES): CCOC(=O)N1CCN(Cc2ccccc2C(=O)NCC(=O)c2ccccc2)CC1 [Example 305, ethyl 4-(2-((2-oxo-2-phenylethyl)carbamoyl)benzyl)piperazine-1-carboxylate]
- fold induction at 1 µM [1, 3]: 1.14
- In vivo relative invation [2]: 1.186

Structure (SMILES): O=C(CNC(=O)c1ccc(CN2CCN(c3ccccc3F)CC2)cc1)c1ccccc1 [Example 257, 4-((4-(2-fluorophenyl)piperazin-1-yl)methyl)-N-(2-oxo-2-phenylethyl)benzamide]
- fold induction at 1 µM [1, 3]: 1.36
- In vivo relative invation [2]: 1.338

Structure (SMILES): O=C(CNC(=O)c1ccc(C(F)(F)F)cc1)c1ccc(Cl)cc1 [Example 75, N-(2-(4-chlorophenyl)-2-oxoethyl)-4-(trifluoromethyl)benzamide]
- fold induction at 1 µM [1, 3]: 0.71
- In vivo relative invation [2]: 1.283

Structure (SMILES): O=C(CNS(=O)(=O)c1cccc([N+](=O)[O-])c1)c1ccc(Cl)cc1 [Example 63, N-(2-(4-chlorophenyl)-2-oxoethyl)-3-nitrobenzenesulfonamide]
- fold induction at 1 µM [1, 3]: 0.7
- In vivo relative invation [2]: 1.102

Structure (SMILES): C/C=C/C(=O)NCC(=O)c1ccc(N2CCOCC2)cc1 [Example 139, (E)-N-(2-(4-morpholinophenyl)-2-oxoethyl)but-2-enamide]
- fold induction at 1 µM [1, 3]: 1.01
- In vivo relative invation [2]: 1.314

Structure (SMILES): O=C(CNC(=O)c1cccc(Cl)c1)c1ccccc1 [Example 7, 3-chloro-N-(2-oxo-2-phenylethyl)benzamide]
- fold induction at 1 µM [1, 3]: 1.2
- In vivo relative invation [2]: 1.091

Structure (SMILES): CC(Oc1ccccc1)C(=O)NCC(=O)c1ccccc1 (stereo not shown) [Example 2, N-(2-oxo-2-phenylethyl)-2-phenoxypropanamide]
- fold induction at 1 µM [1]: 1.14
- In vivo relative invation [2]: 0.8651

Structure (SMILES): O=C(CNC(=O)c1ccc(-c2ccccc2)cc1)c1ccc(Cl)cc1 [Example 86, N-(2-(4-chlorophenyl)-2-oxoethyl)-[1,1′-biphenyl]-4-carboxamide]
- fold induction at 1 µM [1, 3]: 1.01
- In vivo relative invation [2]: 1.193

Structure (SMILES): O=C(CNC(=O)c1ccccc1Cl)c1ccccc1 [Example 6, 2-chloro-N-(2-oxo-2-phenylethyl)benzamide]
- fold induction at 1 µM [1]: 1.91
- In vivo relative invation [2]: 1.144

Structure (SMILES): COc1ccccc1N1CCN(Cc2ccc(C(=O)NCC(=O)c3ccccc3)cc2)CC1 [Example 259, 4-((4-(2-methoxyphenyl)piperazin-1-yl)methyl)-N-(2-oxo-2-phenylethyl)benzamide]
- fold induction at 1 µM [1, 3]: 1.23
- In vivo relative invation [2]: 1.251

Structure (SMILES): CN(C)c1ccc(C(=O)CNC(=O)c2ccc(F)c(F)c2)cc1 [Example 116, N-(2-(4-(dimethylamino)phenyl)-2-oxoethyl)-3,4ifluorobenzamide]
- fold induction at 1 µM [1, 3]: 2.15
- In vivo relative invation [2]: 1.164

Structure (SMILES): O=C(CNC(=O)c1ccccc1CN1CCN(c2ccccn2)CC1)c1ccccc1 [Example 302, N-(2-oxo-2-phenylethyl)-2-((4-(pyridin-2-yl)piperazin-1-yl)methyl)benzamide]
- fold induction at 1 µM [1, 3]: 1.41
- In vivo relative invation [2]: 1.175

Structure (SMILES): Cc1cccc(C(=O)NCC(=O)c2ccc(N3CCOCC3)cc2)c1 [Example 141, 3-methyl-N-(2-(4-morpholinophenyl)-2-oxoethyl)benzamide]
- fold induction at 1 µM [1, 3]: 1.06
- In vivo relative invation [2]: 1.393

Structure (SMILES): CCC(=O)N1CCC(Oc2ccccc2C(=O)NCC(=O)c2ccccc2)CC1 [Example 164, N-(2-oxo-2-phenylethyl)-2-((1-propionylpiperidin-4-yl)oxy)benzamide]
- fold induction at 1 µM [1, 3]: 0.98
- In vivo relative invation [2]: 1.088

Structure (SMILES): O=C(CNC(=O)c1ccc(F)cc1)c1ccccc1 [Example 4, 4-fluoro-N-(2-oxo-2-phenylethyl)benzamide]
- fold induction at 1 µM [1]: 1.88
- In vivo relative invation [2]: 1.084
